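Method: 48-hour compound exposure of cells in 96-well plates, five concentrations, linear interpolation of endpoints. The concentration for 50% growth inhibition is given as GI50.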 Activity calls are given as the source filed them. Rule as the data show it: active = GI50 up to about 1.1 µM and inactive = higher.
Legend:
Assay in all cases: NCI anticancer screen, dose series, 48 h
CCRF-CEM = system: CCRF-CEM
OVCAR-4 = system: OVCAR-4
NCI-H522 = system: NCI-H522
SF-295 = system: SF-295
A549 = system: A549
SK-MEL-5 = system: SK-MEL-5
CAKI-1 = system: CAKI-1
SK-MEL-28 = system: SK-MEL-28
MOLT-4 = system: MOLT-4
ACHN = system: ACHN
NCI-H460 = system: NCI-H460
IGROV-1 = system: IGROV-1
UACC-62 = system: UACC-62
UACC-257 = system: UACC-257
NCI-H226 = system: NCI-H226
SNB-19 = system: SNB-19
DU-145 = system: DU-145
MDA-N = system: MDA-N
Hs-578T = system: Hs-578T

Measured: GI50

CN(O)C(=O)c1ccccc1
inactive: CCRF-CEM > 100 µM | OVCAR-4 > 100 µM | NCI-H522 > 100 µM | SF-295 > 100 µM | A549 > 100 µM | SK-MEL-5 > 100 µM | CAKI-1 > 100 µM | SK-MEL-28 > 100 µM | MOLT-4 > 100 µM | ACHN > 100 µM | NCI-H460 > 100 µM | IGROV-1 > 100 µM | UACC-62 > 100 µM | UACC-257 > 100 µM | NCI-H226 > 100 µM | SNB-19 > 100 µM

OCCN1CCN(CC/C=C2/c3ccccc3Sc3ccc(Cl)cc32)CC1
inactive: CCRF-CEM 8.41 µM | OVCAR-4 17.2 µM | NCI-H522 16.4 µM | SF-295 18.4 µM | A549 15.6 µM | SK-MEL-5 5.89 µM | CAKI-1 10.5 µM | SK-MEL-28 1.87 µM | MOLT-4 11.4 µM | ACHN 16 µM | NCI-H460 5.93 µM | IGROV-1 15.2 µM | UACC-62 2.59 µM | UACC-257 2.52 µM | NCI-H226 14.6 µM | SNB-19 20.7 µM

Cn1c(Nc2ccccc2)c(/C=N\c2ccccc2)c(=O)n(C)c1=O
inactive: CCRF-CEM > 100 µM | OVCAR-4 > 100 µM | SF-295 89.5 µM | DU-145 > 100 µM | A549 > 100 µM | MDA-N > 100 µM | SK-MEL-28 > 100 µM | MOLT-4 61.5 µM | NCI-H460 56.2 µM | IGROV-1 38.3 µM | UACC-62 > 100 µM | UACC-257 > 100 µM

CC(C)=NN/C=N\C(C#N)=C(/N)C#N
inactive: CCRF-CEM > 100 µM | OVCAR-4 > 100 µM | NCI-H522 > 100 µM | SF-295 > 100 µM | DU-145 > 100 µM | A549 > 100 µM | SK-MEL-5 25.8 µM | CAKI-1 > 100 µM | SK-MEL-28 > 100 µM | MOLT-4 > 100 µM | ACHN > 100 µM | NCI-H460 > 100 µM | IGROV-1 > 100 µM | UACC-62 > 100 µM | UACC-257 > 100 µM | NCI-H226 > 100 µM | SNB-19 > 100 µM

O=C(O)/C(Cl)=C(\Cl)C(=O)c1ccccc1
inactive: CCRF-CEM > 100 µM | OVCAR-4 > 100 µM | NCI-H522 > 100 µM | SF-295 > 100 µM | A549 > 100 µM | SK-MEL-5 > 100 µM | CAKI-1 > 100 µM | SK-MEL-28 > 100 µM | MOLT-4 > 100 µM | ACHN > 100 µM | NCI-H460 > 100 µM | IGROV-1 > 100 µM | UACC-62 > 100 µM | UACC-257 > 100 µM | NCI-H226 > 100 µM | SNB-19 > 100 µM

CCOC(=O)C1CSCCSC1
inactive: CCRF-CEM > 100 µM | NCI-H522 > 100 µM | SF-295 > 100 µM | DU-145 > 100 µM | A549 > 100 µM | MDA-N > 100 µM | SK-MEL-5 43.2 µM | SK-MEL-28 > 100 µM | MOLT-4 > 100 µM | Hs-578T > 100 µM | ACHN > 100 µM | NCI-H460 17.5 µM | UACC-257 > 100 µM | NCI-H226 > 100 µM | SNB-19 > 100 µM

CN(C)c1ccc(C(N)=O)cn1
inactive: CCRF-CEM > 100 µM | NCI-H522 > 100 µM | SF-295 > 100 µM | DU-145 > 100 µM | A549 > 100 µM | MDA-N > 100 µM | SK-MEL-5 > 100 µM | SK-MEL-28 > 100 µM | MOLT-4 > 100 µM | Hs-578T > 100 µM | ACHN > 100 µM | NCI-H460 > 100 µM | IGROV-1 > 100 µM | UACC-62 > 100 µM | UACC-257 > 100 µM | SNB-19 > 100 µM

COc1ccc2c(c1)OCc1c-2oc2ccccc2c1=O
inactive: CCRF-CEM > 100 µM | NCI-H522 > 100 µM | SF-295 52.7 µM | DU-145 > 100 µM | A549 > 100 µM | MDA-N > 100 µM | SK-MEL-5 41.1 µM | CAKI-1 > 100 µM | MOLT-4 > 100 µM | ACHN 61.1 µM | IGROV-1 75.2 µM | UACC-62 > 100 µM | UACC-257 > 100 µM | NCI-H226 > 100 µM

Nc1nc(Cl)c(/C=N\O)c(NCC2(CO)CCC2)n1
inactive: CCRF-CEM 28.5 µM | OVCAR-4 27 µM | NCI-H522 14.8 µM | SF-295 21.2 µM | DU-145 40.4 µM | A549 28.4 µM | MDA-N 44.4 µM | SK-MEL-5 28.8 µM | CAKI-1 25.6 µM | SK-MEL-28 54.6 µM | MOLT-4 13.5 µM | Hs-578T 28.2 µM | ACHN 26.3 µM | NCI-H460 32.1 µM | IGROV-1 > 10 µM | UACC-257 29.3 µM | NCI-H226 23.2 µM | SNB-19 53.2 µM

CCOC(=O)C(=[N+]=[N-])C(=O)CN1C(=O)C2CC(C)=C(C)CC2C1O (stereo not given)
inactive: CCRF-CEM > 100 µM | NCI-H522 > 100 µM | SF-295 > 100 µM | DU-145 > 100 µM | A549 > 100 µM | MDA-N > 100 µM | SK-MEL-5 > 100 µM | SK-MEL-28 > 100 µM | MOLT-4 > 100 µM | Hs-578T > 100 µM | ACHN > 100 µM | NCI-H460 > 100 µM | IGROV-1 > 100 µM | UACC-62 > 100 µM | UACC-257 > 100 µM | NCI-H226 68.2 µM | SNB-19 > 100 µM

CC(C)(C)OC(=O)NC(Cc1ccccc1)C(=S)N1CCCC1 (stereo not given)
inactive: CCRF-CEM 69.2 µM | OVCAR-4 86.3 µM | NCI-H522 25 µM | SF-295 95.3 µM | A549 > 100 µM | SK-MEL-5 57 µM | CAKI-1 > 50.9 µM | SK-MEL-28 > 100 µM | MOLT-4 42.6 µM | ACHN > 100 µM | NCI-H460 > 93.8 µM | IGROV-1 > 100 µM | UACC-62 > 80.4 µM | UACC-257 89.1 µM | NCI-H226 > 100 µM | SNB-19 > 100 µM

CC(/C=C/C=C/C=C/C=C/C=C/C(=O)C1=C(O)C(CCC(=O)O)N(C)C1=O)=C\C(C)C(OC1CC(O)C(O)C(C)O1)C(C)C (stereo not given)
inactive: CCRF-CEM 3.26 µM | OVCAR-4 5.75 µM | NCI-H522 2.91 µM | SF-295 3.8 µM | DU-145 3.42 µM | A549 3.19 µM | MDA-N 2.97 µM | SK-MEL-5 1.91 µM | CAKI-1 3.5 µM | SK-MEL-28 2.68 µM | MOLT-4 2.82 µM | Hs-578T 5.85 µM | ACHN 3.13 µM | NCI-H460 2.96 µM | IGROV-1 1.82 µM | UACC-257 2.15 µM | NCI-H226 3.48 µM | SNB-19 2.81 µM

C=C1CCC([N+](=O)[O-])[C@](C)(N=O)CC[C@@H]2C1CC2(C)C (stereo not given in full)
inactive: CCRF-CEM 6.62 µM | OVCAR-4 24.7 µM | NCI-H522 19.4 µM | SF-295 17.9 µM | DU-145 > 100 µM | A549 18.5 µM | MDA-N 11.6 µM | SK-MEL-5 15.3 µM | CAKI-1 34 µM | SK-MEL-28 > 10 µM | MOLT-4 20.5 µM | Hs-578T 17.6 µM | ACHN 37 µM | NCI-H460 19.1 µM | IGROV-1 24.4 µM | UACC-62 > 10 µM | UACC-257 23 µM | NCI-H226 16 µM | SNB-19 27.3 µM

— ChEMBL document CHEMBL1201862, “PubChem BioAssay data set” (2004)
